Counter-ions that a name gives are not always drawn.
The compounds below were run against T1, p38alpha (Homo sapiens, UniProt Q16539) (assay: P38alpha enzyme inhibition assay (Alphascreen kinase activity assay)). Conditions: 100 pM p38alpha, 250 μM ATP, 2 hours pre-incubation at 25° C., ATF-2 fusion protein substrate; read-out: p38α inhibition (IC50 values).
T1 construct: purchased Invitrogen PV3304
Type: biochemical
Experimental: P38alpha Enzyme Inhibition Assay.
The inhibitory activity of compounds was determined using an Alphascreen® (Perkin Elmer) based kinase activity assay. Kinase reactions consisted of 25 mM HEPES pH 7.5, 10 mM MgCl2, 100 μM Na3VO4, 2 mM DTT, 0.05 mg/ml Tween 20, 100 pM p38alpha (Invitrogen, PV3304), 1% DMSO and 0.3 μg/ml ATF-2 fusion protein (New England Biolabs, 9224). Compounds were incubated under these conditions for 2 hours, at 25° C., prior to the initiation of the kinase activity by the addition of the 250 μM ATP. Reaction volumes were 20 uL. After 1 hr at 25° C. reactions were stopped by the adding 10 uL of 25 mM HEPES pH 7.5 containing 62.5 mM EDTA, 0.05% Triton X-100, 10% BSA and 0.83 ng/uL anti-phospho-ATF2 antibody (Abeam, ab28812). Detection was performed by measuring luminescence following the addition of Alphascreen Donor beads (Perkin Elmer 6765300) and Protein A Alphascreen Acceptor beads (Perkin Elmer 6760137), both at a final concentration of 20 ug/ml. IC50 values were determined from concentration-response curves.

T1 sequence (Q16539 whole entry, the tested form may be a part): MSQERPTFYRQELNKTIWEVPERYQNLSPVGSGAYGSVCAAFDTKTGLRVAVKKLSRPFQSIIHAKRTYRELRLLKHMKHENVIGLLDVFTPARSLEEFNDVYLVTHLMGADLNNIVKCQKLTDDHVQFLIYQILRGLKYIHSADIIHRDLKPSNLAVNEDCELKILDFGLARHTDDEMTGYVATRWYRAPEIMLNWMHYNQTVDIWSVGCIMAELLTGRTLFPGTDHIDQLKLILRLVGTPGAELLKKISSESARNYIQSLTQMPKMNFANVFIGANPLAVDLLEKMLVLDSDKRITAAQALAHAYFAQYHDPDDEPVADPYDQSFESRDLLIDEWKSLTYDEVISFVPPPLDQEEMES

`CC(C)(C)c1cc(NC(=O)N[C@H]2CC[C@@H](Oc3ccc4nnc(-c5c(Cl)cccc5Cl)n4c3)c3ccccc32)n(CCN2CCOCC2)n1` [Example 27, 1-[5-tert-Butyl-2-(2-morpholin-4-yl-ethyl)-2H-pyrazol-3-yl]-3-{(1S,4R)-4-[3-(2,6-dichloro-phenyl)-[1,2,4]triazolo[4,3-a]pyridin-6-yloxy]-1,2,3,4-tetrahydro-naphthalen-1-yl}-urea formate salt] and `CC(C)c1nnc2ccc(O[C@@H]3CC[C@H](NC(=O)Nc4cc(C(C)(C)C)nn4-c4ccc5cnn(CCN6CCOCC6)c5c4)c4ccccc43)cn12` [Example 24, 1-{5-tert-Butyl-2-[1-(2-morpholin-4-yl-ethyl)-1H-indazol-6-yl]-2H-pyrazol-3-yl}-3-[(1S,4R)-4-(3-isopropyl-[1,2,4]triazolo[4,3-a]pyridin-6-yloxy)-1,2,3,4-tetrahydro-naphthalen-1-yl]-urea] cannot be ordered by IC50: under 10 nM for the first, under 10 nM for the second.

`Cc1ccc(-n2nccc2NC(=O)N[C@H]2CC[C@@H](Oc3ccc4nnc(C(C)C)n4c3)c3ccccc32)cc1` [Example 20, 1-[(1S,4R)-4-(3-Isopropyl-[1,2,4]triazolo[4,3-a]pyridin-6-yloxy)-1,2,3,4-tetrahydro-naphthalen-1-yl]-3-(2-p-tolyl-2H-pyrazol-3-yl)-urea] and `Cc1ccc(-n2cc(NC(=O)N[C@H]3CC[C@H](Oc4ccc5nnc(C(C)C)n5c4)c4ccccc43)cn2)cc1` [Example 6, 1-[(1S,4S)-4-(3-Isopropyl-[1,2,4]triazolo[4,3-a]pyridin-6-yloxy)-1,2,3,4-tetrahydro-naphthalen-1-yl]-3-(1-p-tolyl-1H-pyrazol-4-yl)-urea] fall in the same range of IC50: 100 to 500 nM for the first, 100 to 500 nM for the second.

`CC(C)c1nnc2ccc(O[C@@H]3CC[C@H](NC(=O)Nc4cc(C(C)(C)C)nn4C4CCNCC4)c4ccccc43)cn12` [Example 16, 1-(5-tert-Butyl-2-piperidin-4-yl-2H-pyrazol-3-yl)-3-[(1S,4R)-4-(3-isopropyl-[1,2,4]triazolo[4,3-a]pyridin-6-yloxy)-1,2,3,4-tetrahydro-naphthalen-1-yl]-urea] and `CC(C)c1nnc2ccc(O[C@@H]3CC[C@H](NC(=O)Nc4cc(C(C)(C)C)nn4-c4ccc5cn(CCN6CCOCC6)nc5c4)c4ccccc43)cn12` [Example 25, 1-{5-tert-Butyl-2-[2-(2-morpholin-4-yl-ethyl)-2H-indazol-6-yl]-2H-pyrazol-3-yl}-3-[(1S,4R)-4-(3-isopropyl-[1,2,4]triazolo[4,3-a]pyridin-6-yloxy)-1,2,3,4-tetrahydro-naphthalen-1-yl]-urea] cannot be ordered by IC50: under 10 nM for the first, under 10 nM for the second.

Compound `CC(C)c1nnc2ccc(O[C@@H]3CC[C@H](NC(=O)Nc4cnn(C(C)(C)C)c4)c4cc(F)ccc43)cn12` [Example 21, 1-(1-tert-Butyl-1H-pyrazol-4-yl)-3-[(1S,4R)-7-fluoro-4-(3-isopropyl-[1,2,4]triazolo[4,3-a]pyridin-6-yloxy)-1,2,3,4-tetrahydro-naphthalen-1-yl]-urea] has an IC50 of under 10 nM.

What follows are compounds tested on LPS-stimulated PBMC TNFα release (assay: LPS-stimulated PBMC TNFα release assay). Conditions: human PBMCs, LPS 10 ng/ml, 18 h, TNFα by ELISA, at least three separate experiments, read-out: p38α inhibition (IC50 values), inhibition of TNFα release.
Type: cell-based
Experimental: LPS-Stimulated PBMC TNFα Release Assay.
Peripheral Blood Mononuclear Cells (PBMCs) were isolated from healthy human volunteer blood using a standard density gradient centrifugation technique. Citrated blood was placed onto Histopaque™ and centrifuged. The PBMCs were removed from the density gradient interface and washed in phosphate buffered saline (PBS). The PBMCs were suspended in RPMI 1640 medium (without serum), dispensed into a 96-well plate and incubated at 37° C. for 3 h in a humidified incubator. After incubation, the medium was replaced (with medium containing 1% foetal bovine serum), and the plate incubated at 37° C., for 1 h, in the presence of test compound or the appropriate vehicle. LPS (10 ng/ml), or an appropriate vehicle control, was then added to the cells, and the plate returned to the incubator for 18 h. Cell-free supernatants were removed and assayed for TNFα levels using an ELISA kit from R&D Systems.
A dose response curve to each test compound was performed and the effect of compound in each experiment was expressed as a percentage inhibition of the control TNFα release. Dose response curves were plotted and compound potency (IC50) was determined. Compounds were tested in at least three separate experiments.

First: CC(C)(C)c1cc(NC(=O)N[C@H]2CC[C@@H](Oc3ccc4nnc(-c5c(Cl)cccc5Cl)n4c3)c3ccccc32)n(CCN2CCOCC2)n1 [Example 27, 1-[5-tert-Butyl-2-(2-morpholin-4-yl-ethyl)-2H-pyrazol-3-yl]-3-{(1S,4R)-4-[3-(2,6-dichloro-phenyl)-[1,2,4]triazolo[4,3-a]pyridin-6-yloxy]-1,2,3,4-tetrahydro-naphthalen-1-yl}-urea formate salt]
Second: CC(C)c1nnc2ccc(O[C@@H]3CC[C@H](NC(=O)Nc4cc(C(C)(C)C)nn4CCO)c4ccccc43)cn12 [Example 10, 1-[5-tert-Butyl-2-(2-hydroxy-ethyl)-2H-pyrazol-3-yl]-3-[(1S,4R)-4-(3-isopropyl-[1,2,4]triazolo[4,3-a]pyridin-6-yloxy)-1,2,3,4-tetrahydro-naphthalen-1-yl]-urea]
The IC50 of the first is lower: under 10 nM for the first, 10 to 100 nM for the second. The first is the more potent here.

For `CC(C)c1nnc2ccc(O[C@@H]3CC[C@H](NC(=O)Nc4cc(C(C)(C)C)nn4-c4ccc(OCCN5CCN(C)CC5)cc4)c4ccccc43)cn12` [Example 13, 1-(5-tert-Butyl-2-{4-[2-(4-methyl-piperazin-1-yl)-ethoxy]-phenyl}-2H-pyrazol-3-yl)-3-[(1S,4R)-4-(3-isopropyl-[1,2,4]triazolo[4,3-a]pyridin-6-yloxy)-1,2,3,4-tetrahydro-naphthalen-1-yl]-urea, formic acid salt], the IC50 was 100 to 1000 nM.

Reference: US9029373B2, “Kinase inhibitors” (Chiesi Farmaceutici S.p.A., priority 2011, dated 2015)
